Results on 3 compounds are retold here after paper PMC5577610, “Nine New Triterpene Glycosides, Magnumosides A1–A4, B1, B2, C1, C2 and C4, from the Vietnamese Sea Cucumber Neothyonidium (=Massinium) magnum: Structures and Activities against Tumor Cells Independently and in Synergy with Radioactive Irradiation” (Marine Drugs, 2017).

Data set [1] can be described thus: Cytotoxic activity (MTT) against mouse spleenocytes. The data set is classed as cell-based. The following applies: CD-1, mouse. The protocol:
(§1) The spleenocytes from CD-1 line mice were used. The spleen was isolated from mice and homogenized. The spleenocytes were washed thrice and resuspended with RPMI-1640 medium contained gentamicine 8 μg/mL (Biolot, Saint Petersburg, Russia). The museum tetraploid strain of murine ascites Ehrlich carcinoma cells from the All-Russian cancer center RAMS (Moscow, Russia) was used. The cells of the ascites Ehrlich carcinoma were separated from ascites, which were collected on day 7 after inoculation in mouse CD-1 line. The cells were washed of ascites thrice and then resuspended in liquid media DMEM with L-Glutamine (Biolot, Saint Petersburg, Russia).
(§2) The solutions of tested substances in different concentrations (20 µL) and cell suspension (200 µL) were added in wells of 96-well plate and incubated over night at 37 °C and 5% CO2. After incubation the cells were sedimented by centrifugation, 200 µL of medium from each well were collected and 100 µL of pure medium were added. Then 10 µL of MTT solution […] (Sigma, St. Louis, MO, USA) were added in each well. Plate was incubated 4 h, after that 100 µL SDS-HCl were added to each well and plate was incubated at 37 °C 4–18 h. Optical density was measured at 570 nm and 630–690 nm. The activity of the substances was calculated as the ratio of the dead cells to general cells amount (ED50). Typicoside A1 [28] and cucumarioside A2-2 [11] were used as positive controls.

The next data set concerns mouse spleenocytes. Described as above. The data set is classed as cell-based. The protocol:
as §1, §2

Another data set has as its system mouse erythrocytes. The data set is classed as cell-based. How it is done: The erythrocytes were washed thrice with 0.9% NaCl, centrifuged (450 g) on a centrifuge […] (Heraeus, Hanau, Germany) for 5 min followed by re-suspending in phosphate-buffered saline (PBS), pH 7.2-7.4. […] ED50 was calculated using SigmaPlot 3.02 software (Jandel Scientific, San Rafael, CA, USA). […] The erythrocyte suspension in phosphate-buffered saline, pH 7.2-7.4 (PBS) with 20 μL of the solvent without a tested compound was used as negative control.

For data set [2], the system named is human colorectal adenocarcinoma DLD-1 cells. Nature of the data set: Cytotoxicity against DLD-1 cells (MTS assay). The data set is classed as cell-based. How it is done: Human colorectal adenocarcinoma cells DLD-1 were cultured in RPMI-1640 medium. Culture media was supplemented with 10% fetal bovine serum (FBS) and penicillin—streptomycin solution. Cells were maintained in a sterile environment and kept in an incubator at 5% CO2 and 37 °C to promote growth. DLD-1 cells were sub-cultured every 3–4 days by their rinsing with phosphate buffered saline (PBS), adding trypsin to detach the cells from the tissue culture flask, and transferring 10–20% of the harvested cells to a new flask containing fresh growth media.
DLD-1 cells (1.0 × 10^4/well) were seeded in 96-well plates for 24 h at 37 °C in 5% CO2 incubator. The cells were treated with the compounds 1–9 at concentrations range from 0 to 100 µM for additional 24 h. Subsequently, cells were incubated with 15 µL MTS reagent for 3 h, and the absorbance of each well was measured at 490/630 nm using microplate reader “Power Wave XS” (Bio Tek, Winooski, VT, USA). All the experiments were repeated three times, and the mean absorbance values were calculated. The results are expressed as the percentage of inhibition that produced a reduction in absorbance by compound’s treatment compared to the non-treated cells (control).

Data set [3] is described as follows: Cytotoxic activity (MTT) against the ascites form of mouse Ehrlich carcinoma cells. The data set is classed as cell-based. The following applies: mouse. How it is done:
as §1, §2

Data set [4] concerns ascites form of mouse Ehrlich carcinoma cells. The description is as above. The data set is classed as cell-based. The conditions noted are these: ascites form of mouse Ehrlich carcinoma cells, MTT, incubated over night. The protocol:
as §1, §2

Data set [5] relates to human lung carcinoma H1299 cells. More on the design: method as in PMID 25738799. The conditions noted are these: cited from earlier work.
The test system of data set [6] is human lung carcinoma A549 cells. Set-up: method as in PMID 25738799. The following applies: cited from earlier work.
Data set [7] relates to Lewis lung carcinoma cell xenograft tumor. More on the design: method as in PMID 25738799. The following applies: C57BL/6 mice bearing a Lewis lung carcinoma cell xenograft tumor; cited from earlier work.

Structures are written as SMILES. Where a name gives a salt, the structure may show the parent alone. A value given as a limit tells only on which side of the number the result lay.

With `CC1OC(OC2C(OC3CCC4(C)C5CCC67C(=O)OC(CC6(C)C5=CCC4C3(C)C)C7C3(C)CCC(C(C)(C)O)O3)OCC(OS(=O)(=O)O)C2O)C(O)C(O)C1O` [Compound 1, 3β-O-[β-D-quinovopyranosyl-(1→2)-4-O-sodium sulfate-β-D-xylopyranosyl]-9βH,20(S),24(S)-epoxy-25-hydroxylanosta-7-ene-18(16)-lactone], the IC50 in data set [1] was more than 100000 nM; in data set [2] (Homo sapiens, DLD-1, read-out: IC50 (50% reduction in cell viability), DLD-1 cells, 24 h, 0–100 µM) it was more than 100000 nM; in data set [3] it was more than 100000 nM. Moreover, the “Cytotoxic action against spleenocytes (in words)” value in the data set with mouse spleenocytes (up to the ultimate investigated concentration of 100 μM) was “inactive”. The “Hemolytic action (in words)” value in the data set with mouse erythrocytes (mouse erythrocytes) is “inactive”. The “Cytotoxic effect against DLD-1 cells (in words)” value in data set [2] (0–100 µM, 24 h) was “did not possessed cytotoxic effect”.
For the compound `C=C(C)CCCC1(C)OC(=O)C23CCC4C(=CCC5C(C)(C)C(OC6OCC(OS(=O)(=O)[O-])C(O)C6OC6OC(C)C(OC7OC(CO)C(O)C(OC8OC(CO)C(O)C(OC)C8O)C7O)C(O)C6OC6OCC(O)C(O)C6O)CCC45C)C2(C)CC(=O)C13.[Na+]` (stereo not drawn) [Cucumarioside A2-2, reference compound], the IC50 in the data set on mouse spleenocytes (CD-1 mouse spleenocytes, MTT, incubated over night) was found to be 1210 ± 20 nM; in data set [4], 1390 ± 15 nM. In the data set on mouse erythrocytes (CD-1 mouse erythrocytes, 1 h at 37 °C, dose causing 50% of hemolysis), the “Hemolytic Activity, ED50” value stood at 0.82 ± 0.02 μM/mL.
Take `CC(C)=CCC[C@](C)(O)[C@H]1CC[C@]2(C)[C@@H]1[C@H](O)C[C@@H]1[C@@]3(C)CC[C@H](O[C@@H]4O[C@H](CO)[C@@H](O)[C@H](O)[C@H]4O[C@@H]4O[C@H](CO)[C@@H](O)[C@H](O)[C@H]4O)C(C)(C)[C@@H]3CC[C@]12C` [ginsenoside Rg3]: the “Sensitization to γ-radiation (in words)” value in [5] and in data set [6] was “sensitized” throughout. The “Efficacy of radiation therapy (in words)” value in data set [7] is recorded as “significantly enhanced the efficacy of radiation therapy”.
